Experiments:
[1] = Stability test: high-humidity test (25° C., RH 90%±5%); type: physicochemical; conditions: for Appearance / Purity (%): High-humidity 25° C., RH 90%±5%; for Purity (%): HPLC
Experimental: (§1) (2) High-humidity test: A batch of the test sample was taken into a flat weighing bottle, divided into ≤5 mm thick thin layer. The sample was placed at 25° C., RH 90%±5% for 30 days. The sample was then sampled at day 5, day 10 and day 30, and the change of the sample's color was observed. The purity of the sample was detected by HPLC, and the structure of the sample was analyzed by X-ray powder diffraction, the change of X-ray powder diffraction in high humidity test was […] as shown in FIG. 5.

[2] = Stability test: light test (4500±500lx, UV); type: physicochemical; conditions: for Appearance / Purity (%): Light 4500±500lx, UV; for Purity (%): HPLC
Experimental: as §1, with “(3) Light” for “(2) High-humidity”, “placed in an opened light box (with UV)” for “placed”, “the illuminance 4500±500lx, UV light ≥0.7 w/m^2” for “25° C., RH 90%±5%”, “13” for “10”, “light” for “high humidity”, “6.” for “5.”

[3] = Hygroscopicity test by dynamic moisture adsorption (DVS); type: physicochemical; conditions: relative humidity of 80%
Experimental: The description of the hygroscopic feature and the definition of the hygroscopic weight gain (Chinese Pharmacopoeia 2015 edition, Appendix 9103 Guidelines for Drug Hygroscopicity Tests, experimental conditions: 25° C.±1° C., 80%±2% relative humidity) are as described in the table below.
An appropriate amount of the test sample was taken and the hygroscopicity of the test sample was tested by dynamic moisture adsorption device. […] That is, the crystal form A of the invention is not easily deliquescent under the influence of high humidity.

[4] = Pharmacokinetic test in Beagle dogs, oral capsules; type: in vivo; conditions: 5 mg/kg oral
Experimental: The crystal form A of compound having Formula (I) named 2-((5-cyclopropyl-3-(2,6-dichlorophenyl)isoxazol-4-yl)methoxy)-10H-spiro[benzo[6,7]oxepino[3,2-b]pyridine-11,1′-cyclopropane]-7-carboxylic acid was filled into capsules, which was for oral administration.
8-12 kg Male Beagle dogs were given 5 mg/kg test sample orally, with 3 animals in each group. Blood samples were taken at time points of 0.25, 0.5, 1.0, 2.0, 4.0, 6.0, 8.0, 12 and 24 h. Standard curve was plotted based on concentrations of the samples in a suitable range, the concentration of the test sample in the plasma sample was measured and quantified by AB SCIEX API4000 LC-MS/MS at MRM mode. Pharmacokinetic parameters were calculated according to drug concentration-time curve using a noncompartmental model by WinNonLin 6.3 software.

[5] = Stability test: high-temperature test (60° C.); type: physicochemical; conditions: for Purity (%): HPLC
Experimental: as §1, with “(1) High-temperature” for “(2) High-humidity”, “60° C.” for “25° C., RH 90%±5%”, “temperature” for “humidity”, “4.” for “5.”

[6] = dog, plasma, male Beagle dogs, capsules
[7] = High-temperature 60° C., 5 days
[8] = High-temperature 60° C., 10 days
[9] = High-temperature 60° C., 30 days

Appearance ([1]; 5 days): White | Purity (%) ([1]; 5 days): 99.55% | Appearance ([1]; 10 days): White | Purity (%) ([1]; 10 days): 99.39% | Appearance ([1]; 30 days): White | Purity (%) ([1]; 30 days): 99.42% | changes of appearance, chemical purity and crystal form ([1]; high-humidity, up to 30 days): no obvious changes | Appearance ([2]; 5 days): White | Purity (%) ([2]; 5 days): 99.53% | Appearance ([2]; 13 days): White | Purity (%) ([2]; 13 days): 99.31% | Appearance ([2]; 30 days): White | Purity (%) ([2]; 30 days): 99.43% | changes of appearance, chemical purity and crystal form ([2]; light, up to 30 days): no obvious changes | hygroscopic feature according to the criterion for the hygroscopic weight gain [3]: no or almost none hygroscopicity | weight gain after equilibrium [3]: less than 0.1% | exposure in Beagle dogs ([4]; conclusion in words): relatively large exposure | AUC(0-t) [4, 6]: 237 ng·h/mL | Cmax [4, 6]: 86 ng/mL | Tmax ([4]; male Beagle dogs, capsules): 40 min | Appearance ([5]; 0 days (initial sample)): White | Purity (%) ([5]; 0 days (initial sample)): 99.44% | Appearance [5, 7]: White | Purity (%) [5, 7]: 99.33% | Appearance [5, 8]: White | Purity (%) [5, 8]: 99.35% | Appearance [5, 9]: White | Purity (%) [5, 9]: 99.45% | changes of appearance, chemical purity and crystal form ([5]; high-temperature, up to 30 days): no obvious changes
Structure (SMILES): O=C(O)c1ccc2c(c1)Oc1ccc(OCc3c(-c4c(Cl)cccc4Cl)noc3C3CC3)nc1C1(CC1)C2 [Crystal form A, 2-((5-cyclopropyl-3-(2,6-dichlorophenyl)isoxazol-4-yl)methoxy)-10H-spiro[benzo[6,7]oxepino[3,2-b]pyridine-11,1′-cyclopropane]-7-carboxylic acid]
